Reference: article PMC10254045, “Elaboration of the Effective Multi-Target Therapeutic Platform for the Treatment of Alzheimer’s Disease Based on Novel Monoterpene-Derived Hydroxamic Acids” (International Journal of Molecular Sciences, 2023)

Key:
[1] = test system: 5xFAD transgenic mice brain; experiment: MDA level in brain samples (TBA test); assay type: in vivo; settings: 21-day administration, 15 mg/kg; p = 0.001 vs 5xFAD
Excerpt: As part of the in vivo testing of the biological activity of the leader compound, a transgenic mouse model with Alzheimer’s disease 5xFAD at the age of 13 months was used. This line expresses two human genes: APP (amyloid peptide precursor protein gene) with three types of mutations (Swedish (K670N, M671L), Florida (I716V) and London (V717I)), as well as the presenilin 1 gene with mutations (M146L and L286V) characteristic of this disease. Clinically healthy wildtype single-litter mice C57Bl6/j (n = 8) were used as a control group. […]
To determine the level of malondialdehyde in the brain of animals, the samples were homogenized in a buffer solution and subjected to a centrifugation procedure at 12,000 rpm for 10 min at 4 °C, after which the infusion fluid was collected for subsequent analysis. Quantitative determination of the protein was carried out as described earlier.
The content of malondialdehyde was determined using a modified TBA test. […] The optical density of the selected suprasetting fluid was measured using a multifunctional Cytation™3 flatbed analyzer (BioTek Instruments, Inc., Winooski, VT, USA) at λ = 540 nm.

[2] = molecular target: T1, β-amyloid peptide 1-42 (Aβ1-42) (Homo sapiens, UniProt P05067); experiment: Thioflavin T fluorescent analysis of Aβ1-42 aggregation; assay type: biochemical; settings: 48 h, compounds 100 µM, Thioflavin T 10 µM, 48 h registration; read-out: prevention of the aggregation of Aβ1-42
T1 construct: the pathological form of β-amyloid peptide 1-42 (Sigma Aldrich); purchased Sigma Aldrich
T1 sequence (P05067 672-713 limits assumed): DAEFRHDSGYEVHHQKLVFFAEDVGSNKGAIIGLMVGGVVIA
Excerpt: The aggregation process of β-amyloid peptide 1-42 (Aβ1-42), caused by hydrophobic interactions of peptide monomers and, as a consequence, the formation of the most toxic polymorphic structure-oligomeric fragments of Aβ, was detected using the fluorescent dye Thioflavin T (Figure 4a). This method is the most widely used for selective staining and the identification of amyloid aggregates, which is confirmed by a large number of works. Fluorescence analysis using Thioflavin T made it possible to monitor the aggregation process of the pathological form of β-amyloid peptide 1-42 (Sigma Aldrich, St. Louis, MI, USA). The experimental protocol was carried out similarly to that described in [58] with some modifications. The registration of changes in the fluorescence of thioflavin T (10 µM, Sigma Aldrich, St. Louis, MI, USA) was performed on a multifunctional tablet analyzer Cytation™3 (BioTek Instruments, Inc., Winooski, VT, USA) at λex = 450 nm, λem = 480 nm. The fluorescence intensity of the solution without Aβ1-42 was subtracted from the fluorescence values of solutions containing protein, due to the need to subtract the background fluorescence.

C=C(C)[C@@H]1CC=C(CNC(=O)/C=C/c2ccc(C(=O)NO)cc2)CC1 [Compound 35a, (S,E)-N-hydroxy-4-(3-oxo-3-(((4-(prop-1-en-2-yl)cyclohex-1-en-1-yl)methyl)amino)prop-1-en-1-yl)benzamide]
MDA level in brain (increase in 5xFAD mice) [1]: reversed | inhibition at 100 µM [2]: 73.9%
